In one experiment the test system is THP-1 cells. In words: Human monocytic THP-1 cell differentiation assay for soluble proteins (THP-1 soluble protein assay). As to conditions: LPS-stimulated THP-1 cells, soluble protein not given. The class given is cell-based.
The next experiment deals with MMP-9 (Homo sapiens, UniProt P14780). In words: MMP-9 inhibition (thiopeptide or fluorescent peptide substrate). Particulars: read-out: MMP9 IC50. The class given is biochemical.

pIC50: −log10 of the molar value. Where a name gives a salt, the structure may show the parent alone.

Sequence of MMP-9 (P14780 94-707): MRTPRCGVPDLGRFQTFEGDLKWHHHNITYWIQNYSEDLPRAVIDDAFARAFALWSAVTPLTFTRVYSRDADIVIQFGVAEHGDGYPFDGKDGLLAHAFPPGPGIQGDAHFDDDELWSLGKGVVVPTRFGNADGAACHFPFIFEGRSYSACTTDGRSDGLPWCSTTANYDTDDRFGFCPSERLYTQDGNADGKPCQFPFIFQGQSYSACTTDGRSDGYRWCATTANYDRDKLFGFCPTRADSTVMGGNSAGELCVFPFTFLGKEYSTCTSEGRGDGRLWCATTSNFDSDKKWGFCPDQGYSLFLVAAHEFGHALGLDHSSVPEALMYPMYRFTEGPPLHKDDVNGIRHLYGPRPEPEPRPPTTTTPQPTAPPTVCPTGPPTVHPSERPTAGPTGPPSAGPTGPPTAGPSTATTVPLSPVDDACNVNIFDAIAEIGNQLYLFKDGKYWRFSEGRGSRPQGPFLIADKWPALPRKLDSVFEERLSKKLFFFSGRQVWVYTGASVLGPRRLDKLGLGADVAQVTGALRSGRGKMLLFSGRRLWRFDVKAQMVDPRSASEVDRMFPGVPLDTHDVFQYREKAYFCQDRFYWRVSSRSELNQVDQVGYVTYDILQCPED

Regarding `CC#CCOc1ccc(S(=O)(=O)C2(C(=O)NO)CCN(C(=O)C(C)(CO)CO)CC2)cc1` [Example 74, 4-(4-But-2-ynyloxybenzenesulfonyl)-N-hydroxy-1-[3-hydroxy-2-(hydroxymethyl)-2-methylpropanoyl]-4-piperidinecarboxamide], in the experiment with THP-1 cells, the inhibition at 3 µM was found to be 39%. Moreover, on MMP-9, the pIC50 is 6.02.
For the molecule `CC#CCOc1ccc(S(=O)(=O)C2(C(=O)NO)CCN(C(=O)OC(C)(C)C)CC2)cc1` [Example 75, Tert-butyl 4-{[4-(2-butynyloxy)phenyl]sulfonyl}-4-[(hydroxyamino)carbonyl-]-1-piperidinecarboxalate], the inhibition at 3 µM in the experiment on THP-1 cells is -4%. At MMP-9, the pIC50 is 5.71.
On the same counts, the results for `CC#CCOc1ccc(S(=O)(=O)C2(C(=O)NO)CCNCC2)cc1` [Example 76, 4-{[4-(2-butynyloxy)phenyl]sulfonyl}-N-hydroxy-4-piperidinecarboxamide hydrochloride] are 26% and 5.10.
Regarding `CC#CCOc1ccc(S(=O)(=O)C2(C(=O)NO)CCN(Cc3ccc(C(=O)OC)cc3)CC2)cc1` [Example 77, hydrochloride], the inhibition at 3 µM in the experiment with THP-1 cells is 52%. The pIC50 on MMP-9 was 6.83.
On the same counts, the results for `CC#CCOc1ccc(S(=O)(=O)C2(C(=O)NO)CCN(Cc3ccc(C(=O)O)cc3)CC2)cc1` [Example 78, 4-({4-{[4-(2-butynyloxy)phenyl]sulfonyl}-4-[(hydroxyamino)-carbonyl]-1-piperidinyl}methyl)benzoic acid hydrochloride] are 64% and 6.44.
On the same counts, the results for `CC#CCOc1ccc(S(=O)(=O)C2(C(=O)NO)CCN(Cc3ccc(C(N)=O)cc3)CC2)cc1` [Example 79, 1-[4-(Aminocarbonyl)benzyl]-4-{[4-(2-butynyloxy)phenyl]sulfonyl}-N-hydroxy-4-piperidinecarboxamide hydrochloride] are 83% and 6.89.
Take `CC#CCOc1ccc([S+]([O-])C2(C(=O)NO)CCN(C(=O)OC(C)(C)C)CC2)cc1` (stereo not drawn) [Example 80, tert-butyl 4-{[4-(but-2-ynyloxy)phenyl]sulfinyl}-4-[(hydroxyamino)carbonyl]piperidine-1-carboxalate]: the inhibition at 3 µM in the experiment on THP-1 cells is -7%. The pIC50 at MMP-9 was 6.91.
For `CC#CCOc1ccc([S+]([O-])C2(C(=O)NO)CCNCC2)cc1` (stereo not drawn) [Example 81, 4-(4-(But-2-ynyloxy-benzenesulfinyl)-piperidine-4-carboxylic acid hydroxamide hydrochloride], in that order: 25% and 5.99.
On the same counts, the results for `CC#CCOc1ccc([S+]([O-])C2(C(=O)NO)CCN(Cc3ccc(Br)cc3)CC2)cc1` (stereo not drawn) [Example 82, 1-(4-Bromo-benzyl)-4-(4-But-2-ynyloxy-benzenesulfinyl)-piperidine-4-carboxylic acid hydroxamide hydrochloride] are 16% and 6.90.
